Earlier results as cited in patent publication US9801890B2, “Medical methods utilising high purity diaminophenothiazinium compounds” (WisTa Laboratories Ltd., priority 2004, dated 2017).

Key:
viruses = conditions: in vitro
HIV = conditions: laboratory tests
West Nile Virus = conditions: laboratory tests

CN(C)c1ccc2nc3ccc(N(C)C)cc3[s+]c2c1.[Cl-] [MTC, 3,7-bis(dimethylamino) phenothiazin-5-ium chloride]
viricidal activity (viruses): potent viricidal activity
effectiveness against virus (HIV): effective
effectiveness against virus (West Nile Virus): effective
